The source of these data is patent US20230135501A1, “GENE THERAPY” (UCL BUSINESS LTD, priority 2020, published 2023).

Holding throughout (assay type): cell-based
One test has as its system Primary porcine RPE. Kind of test: POS/Gas-6 stimulated pseudopod assembly in serum-free primary porcine RPE. The note with it: serum-free medium 4 h, 30 min stimulation with POS-FITC, with Gas-6.
In test [1] the test system is porcine primary RPE cells. Kind of test: POS-induced pseudopod/contractile cup formation, pMLC and POS centring at 30 min in primary porcine RPE cells. From the text:
Fixation and processing cells and mouse tissue sections was as previously described in Zihni, C. et al (2017). The following antibodies were used: RPE65 mouse monoclonal (Millipore) 1/300 for immuno-fluorescence; p-MLC S19, mouse monoclonal (Cell Signaling Technology) immunofluorescence 1/100 and immunoblotting 1/1000; Dbl(3), rabbit polyclonal (Santa Cruz Biotechnology) immunofluorescence 1/200; MRCKβ, rabbit polyclonal (Santa Cruz Biotechnology) immunofluorescence 1/200 and immunoblotting 1/500; anti-Cdc42-GTP mouse monoclonal (NewEast Biosciences) immunofluorescence 1/50; N-WASP, rabbit polyclonal (Santa Cruz Biotechnology) immunofluorescence and immunoblotting 1/1000; MerTK rabbit monoclonal (Abcam 52968) immunofluorescence 1/100; Integrin αVβ5, mouse monoclonal (Clone P1F6) (Abcam 24694) immunofluorescence 1/100; pFAK Y397, rabbit polyclonal (Invitrogen) immunofluorescence 1/100; pSrc Y416, rabbit polyclonal (Cell Signaling Technology) immunofluorescence 1/100; Phalloidin-Atto 647 reagent was obtained from Sigma and diluted 1/1000. Affinity-purified and cross-adsorbed Alexa488-, Cy3- and Cy5-labelled donkey anti-mouse, rabbit, or goat secondary antibodies were from Jackson ImmunoResearch Laboratories (1/300 diluted from 50% glycerol stocks). Affinity-purified HRP-conjugated goat anti mouse and rabbit, and donkey anti goat secondary antibodies 1/5000 were also from Jackson ImmunoResearch Laboratories (1/5000 diluted from 50% glycerol stocks). For immunofluorescence analysis cells and tissues were mounted using Prolong Gold antifade reagent (Life technologies) and imaging was performed using Zeiss 700 and 710 confocal microscopes and a 64× oil lens/NA1.4. Images were processed using Zeiss Zen 2009 and Adobe Photoshop CS5 and 10 software. Co-immunoprecipitation and immunoblotting were carried out using methods previously described and were repeated at least three times.

Test [2] has as its system porcine primary RPE cells. Nature of the test: POS phagocytosis (internalization) in primary porcine RPE cells. Also on record: ability of RPE cells to internalize POS (confocal z-sections): dose or concentration left out as unconfirmed. From the text:
Wilcoxon tests also were used where indicated.
The inventors next asked whether MRCKβ is directly involved in POS internalization using porcine primary RPE cells. […] MRCK was not required for POS to attach to the RPE, indicating integrin αVβ5-POS binding was not affected (FIGS. 2b and 2f). POS binding stimulates the formation of extended pseudopods that retract with internalization of POS. […] Thus, MRCKβ controls POS-induced membrane remodelling during phagocytic cup formation and particle internalization.

Take `O=C(Nc1cn[nH]c1-c1ccccn1)c1nn(C2CCNCC2)cc1Cl` [BDP5290]: the POS-dependent pseudopod assembly entry in the test with Primary porcine RPE is recorded as “did not inhibit”. In test [1] (POS for 30 minutes), the “POS centring at pseudopods/cups” value is “un-centred POS”, the “efficiency of POS binding to RPE cells” value is recorded as “unaltered” and the “pMLC activity/staining at pseudopods/cups” value is reported as “lack pMLC activity”. The “MLC phosphorylation after blebbistatin washout” value in test [1] (washout of blebbistatin in the presence of the MRCK inhibitor) was “inhibition of MLC phosphorylation”. The “phagocytosis of GOLD-labelled POS (transmission electron microscopy)” value in test [2] (GOLD-labelled POS, TEM) is listed as “inhibition of phagocytosis”. Moreover, the “ability of RPE cells to internalize POS (confocal z-sections)” value in test [2] (POS-FITC 1 h followed by 2 h chase) was “strongly inhibited”.

Turning to `Cc1ccc2c(c1)C(=O)C1(O)CCN(c3ccccc3)C1=N2` (stereo not shown) [blebbistatin, Blebbistatin], the pseudopod/cup organization result in test [1] (Blebbistatin used at 10 μM) is “disorganised pseudopods”. The “POS centring at pseudopods/cups” value in test [1] (POS for 30 minutes) is given as “loss of efficient POS centring”.

In the case of `CN(C)C[C@H](O)Cn1c2ccc(Br)cc2c2cc(Br)ccc21` (racemic) [Wiskostatin], the “pMLC activity/staining at pseudopods/cups” value in test [1] (POS for 30 minutes) is given as “reduced”. In addition, in test [1] (Wiskostatin used at 5 μM), the “less F-actin in pseudopods when compared to control cells” value is listed as “approx. 50%” and the “number of cells forming normal pseudopods” value is “drastic reduction”.

B1: Gas-6: growth arrest-specific 6, soluble protein which links MerTK to POS (protein, UniProt Q14393 31-678, looked up)
Growth arrest-specific …: ALLPAREATQFLRPRQRRAFQVFEEAKQGHLERECVEELCSREEAREVFENDPETDYFYPRYLDCINKYGSPYTKNSGFATCVQNLPDQCTPNPCDRKGTQACQDLMGNFFCLCKAGWGGRLCDKDVNECSQENGGCLQICHNKPGSFHCSCHSGFELSSDGRTCQDIDECADSEACGEARCKNLPGSYSCLCDEGFAYSSQEKACRDVDECLQGRCEQVCVNSPGSYTCHCDGRGGLKLSQDMDTCEDILPCVPFSVAKSVKSLYLGRMFSGTPVIRLRFKRLQPTRLVAEFDFRTFDPEGILLFAGGHQDSTWIVLALRAGRLELQLRYNGVGRVTSSGPVINHGMWQTISVEELARNLVIKVNRDAVMKIAVAGDLFQPERGLYHLNLTVGGIPFHEKDLVQPINPRLDGCMRSWNWLNGEDTTIQETVKVNTRMQCFSVTERGSFYPGSGFAFYSLDYMRTPLDVGTESTWEVEVVAHIRPAADTGVLFALWAPDLRAVPLSVALVDYHSTKKLKKQLVVLAVEHTALALMEIKVCDGQEHVVTVSLRDGEATLEVDGTRGQSEVSAAQLQERLAVLERHLRSPVLTFAGGLPDVPVTSAPVTAFYRGCMTLEVNRRLLDLDEAAYKHSDITAHSCPPVEPAAA
Take B1: in the test with Primary porcine RPE, the POS-dependent pseudopod assembly entry is on record as “sharp increase”.
